Results published in patent publication US12195464B2, “Lumateperone bis-tosylate salts and crystals and methods for manufacture thereof” (INTRA-CELLULAR THERAPIES, INC., priority 2018, dated 2025).

What was measured:
[1] = salt of U.S. Pat. No. 7,183,282; cited from earlier work
[2] = salt of U.S. Pat. No. 7,183,282; cited from earlier work; remark: listed apart in the source
[3] = system: NMDA and AMPA signaling; details: especially in the medial prefrontal cortex (mPFC); indirectly via D1 interaction; cited from earlier work
[4] = free base form; cited from earlier work
[5] = target: T1, 5-HT2C (Homo sapiens, UniProt P28335); details: receptor associated with cognitive and metabolic side effects; cited from earlier work
T1 sequence (P28335 33-458): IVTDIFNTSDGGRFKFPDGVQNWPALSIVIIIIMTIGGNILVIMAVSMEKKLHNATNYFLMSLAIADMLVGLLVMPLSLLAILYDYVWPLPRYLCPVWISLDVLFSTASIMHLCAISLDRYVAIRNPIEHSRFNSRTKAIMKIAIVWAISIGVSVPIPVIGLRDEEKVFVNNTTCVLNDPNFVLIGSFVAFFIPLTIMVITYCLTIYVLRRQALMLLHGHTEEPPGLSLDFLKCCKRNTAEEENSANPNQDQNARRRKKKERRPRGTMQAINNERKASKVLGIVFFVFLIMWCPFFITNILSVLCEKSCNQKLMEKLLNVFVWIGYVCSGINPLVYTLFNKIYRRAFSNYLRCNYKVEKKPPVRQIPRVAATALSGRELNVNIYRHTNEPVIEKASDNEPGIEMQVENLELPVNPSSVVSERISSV

[6] = solubility in organic solvents; format: physicochemical; details: free base, variety of organic solvents
[7] = target: H1 histaminergic (Homo sapiens, UniProt P35367); details: receptor associated with cognitive and metabolic side effects; cited from earlier work
Chain of H1 histaminergic (P35367 whole entry): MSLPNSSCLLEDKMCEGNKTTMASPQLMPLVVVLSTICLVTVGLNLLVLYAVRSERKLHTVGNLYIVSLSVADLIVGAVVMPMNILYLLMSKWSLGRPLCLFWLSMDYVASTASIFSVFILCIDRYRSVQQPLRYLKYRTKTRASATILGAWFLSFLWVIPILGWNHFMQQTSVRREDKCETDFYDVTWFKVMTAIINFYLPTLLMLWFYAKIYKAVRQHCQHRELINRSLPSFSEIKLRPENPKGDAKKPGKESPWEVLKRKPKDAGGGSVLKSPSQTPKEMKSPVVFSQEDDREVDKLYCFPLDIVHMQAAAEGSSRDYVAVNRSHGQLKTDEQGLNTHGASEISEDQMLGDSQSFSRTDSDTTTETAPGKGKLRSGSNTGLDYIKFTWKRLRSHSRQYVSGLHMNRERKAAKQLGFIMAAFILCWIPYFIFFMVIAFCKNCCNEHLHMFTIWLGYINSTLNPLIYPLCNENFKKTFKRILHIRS

[8] = system: muscarinic; details: receptor associated with cognitive and metabolic side effects; cited from earlier work

solubility in organic solvents [6] | SMILES | stability (in words) [1] | hygroscopicity (in words) [2] | NMDA and AMPA signaling in the brain [3] | aqueous solubility [4] | binding to 5-HT2C receptor [5] | binding to H1 histaminergic receptor [7] | binding to muscarinic receptors [8]
 | CN1CCN2c3c(cccc31)C1CN(CCCC(=O)c3ccc(F)cc3)CCC12.Cl (centres unmarked) [hydrochloride salt form of ITI-007] | poor stability | hygroscopic |  |  |  |  | 
good solubility | CN1CCN2c3c(cccc31)[C@@H]1CN(CCCC(=O)c3ccc(F)cc3)CC[C@@H]12 [ITI-007, 4-((6bR,10aS)-3-methyl-2,3,6b,9,10,10a-hexahydro-1H-pyrido[3′,4′:4,5]pyrrolo[1,2,3-de]quinoxalin-8(7H)-yl)-1-(4-fluorophenyl)-1-butanone] |  |  | enhanced | poor aqueous solubility | negligible binding | negligible binding | negligible binding
